Assay [1] relates to C57Bl/6J wild-type mice. Briefly: 18F-FDG PET glucose uptake in the brain. The class given is in vivo, mouse. The settings on record: gavage, 30 mg/kg, vs Vehicle. The procedure:
(§1) All experiments were carried out in strict accordance with the Swiss Federal Guidelines for Animal Experimentation and were approved by the Cantonal Veterinary Office for Animal Experimentation (Canton of Geneva, Switzerland). Adult male C57Bl/6J wild-type mice weighting 18-28 g (8 to 12 weeks of age) were used (Charles River Laboratories). Animals were housed in groups of 3-5 in polypropylene cages (30×40×15 cm) with wire mesh top in a temperature (22±2° C.) and humidity (55±15%) controlled environment on a 12-hour light cycle (07.00-19.00 h lights on), except after surgeries when animal were housed individually. The samples (Vehicle or compounds of the invention) were administered per os (gavage) in a solution made of water supplemented with 0.4% hydroxypropyl methylcellulose (HPMC) Methocel 4 KM (w/v) and 0.25% Tween-20 (v/v), as previously described (Thackaberry et al., 2010, Toxicol Sci., 117(2):485-92). Concentrations of the compounds tested ranged from 3 to 30 mg/kg.
^18F-FDG PET Glucose uptake in the brain was measured in vivo using 18F-fluorodeoxyglucose (FDG) with positron emission tomography (PET) Scan. Mice were fasted for 12 hours before the scans PET/CT measurements. Compounds of the invention were administered by gavage, followed by an intraperitoneal injection of 5 MBq of ^18F-FDG in 300 μL of saline. […]

Assay [2] concerns primary astrocytes. In words: MTT mitochondrial activity assay in primary astrocytes. The conditions noted are these: different concentrations, after 1.5 h or 24 h. It counts as cell-based, mouse. The procedure: (§2) Primary cultures of cerebrocortical astrocytes were obtained from 1 to 2-day-old OF1 mouse pups (Charles River Laboratories). Briefly, cortices were isolated and minced in small pieces under a dissecting microscope. The cells were incubated for 30 min at 37° C. in a solution containing 20 U/ml papain, 1 mM L-cysteine and 10 kU/ml DNase I. After dissociation, papain activity was stopped by the addition of fetal calf serum (FCS). Single-cell suspension was then obtained by mechanical dissociation, which consisted in cells trituration in a DMEM D7777 medium supplemented with 44 mm NaHCO3, 10 ml/L antibiotic/antimycotic solution and 10% FCS. The cells were seeded at an average density of ˜10′000 cells/cm^2 on poly-D-lysine coated 96- or 12-well culture plates, depending on their use, and grown in DMEM D7777 medium supplemented with 44 mm NaHCO3, 10 ml/L antibiotic/antimycotic solution and 10% FCS at 37° C. in a humidified atmosphere containing 5% CO2/95% air. Culture medium was renewed twice a week. Cells were stimulated and harvested between DIV14 and DIV17, when confluence and cell growth were optimal.
To monitor mitochondrial activity in astrocytes, which is linked to the metabolic process of glycolysis and production of lactate, astrocytes in 96-well plates were stimulated for 24 h (37° C. 5% CO2/95% air) with the compounds of the invention ranging from 10 nM to 10 μM.
After stimulation, 5 mg/ml thiazol blue tetrazolium bromide (MTT) in D5030 medium complemented with 5 mM D-glucose and 44 mM sodium bicarbonate (pH 7.2) was added to each well, and cells were incubated for 4 h at 37° C. (5% CO2). The medium was then removed and the amount of reduced MTT, i.e formazan, solubilized in DMSO (50 μl/well) was determined using a spectrophotometer (absorbance of 570 nm).
The mitochondrial activity was monitored in MTT colorimetric assay in primary astrocytes treated with Compounds (1), (2), (3), (4) (5), (9) and (10) at different concentrations after 1.5 h (FIG. 2 A, B, D, E, F, C, H, respectively) or 24 h (FIG. 2 H, I, K, L, M, J, N, respectively).

The test system of another assay is GLUT1-DS transgenic mice. Briefly: Rotarod motor function in GLUT1-DS transgenic mice. The class given is in vivo, mouse. The settings on record: single administration 10 mg/kg, 20 min before rotarod. From the text: (§3) Heterozygous transgenic mice on 129/SvJ genetic background in which glucose transporter 1 (GLUT1) has been knocked down were used (GLUT1(+/−)) (Wang et al., 2016, Human Molecular Genetics, 15(7)). GLUT1-deficiency syndrome (GLUT1-DS) is a prototypic hypometabolic diseases caused by the mutation of GLUT1 and decreased levels of glucose and lactate in the brain (Tang et al., 2019, Annals of Clinical and Translational Neurology 6(9)). Mating colonies were composed of wild-type female mice and GLUT1-DS male mice, or GLUT1-DS female mice and wild-type male mice. F1 pups were genotyped after ear punching at weaning using PCR to determine genotype. Mice of 2 to 3 months of age were used.
Motor function was measured in wild-type (WT) and GLUT 1-DS transgenic mice in the rotarod after single administration of Veh. or compound (1) or (2) (10 mg/kg) 20 min before rotarod. Rotarod testing consisted in placing the mouse on an accelerating rotating rod (4 to 40 r.p.m.) during a maximum of 300 seconds. 3 consecutive sessions with 15 min apart were performed. Latency for the mouse to fall from the rod was recorded and the maximal latency over the 3 trials was used as a measure of motor function.
A general note: The rotarod test checks motor coordination on a turning rod.

Assay [3] relates to primary astrocytes. Briefly: Extracellular medium acidification (SNARF5) assay in astrocytes. It counts as cell-based. The settings on record: Mus musculus, Astrocyte; astrocytes in vitro; compounds 10 nM to 30 μM; read-out: Activity (EC50 class, extracellular medium acidification SNARF5). On the procedure:
To assess for the effect of the compounds of the invention, those were tested in primary mouse astrocytes and astrocytes differentiated from human-derived induced pluripotent stem cells (iPSCs). Secretion of lactate was measured indirectly through the acidification of extracellular medium using extracellular pH sensor SNARE-5F-(AND-6)-CAR (SNARF5) as described below.
as §2
Secretion of lactate was measured indirectly through the acidification of extracellular medium using extracellular pH sensor SNARF-5F-(AND-6)-CAR (SNARF5). After washing cells twice with stimulation medium (DMEM (D5030, Sigma), 1 mM […], and 5 mM Glucose, pH 7.4) at 37° C., cells were stimulated with compounds at a final concentration ranging from 10 nM to 30 μM in 50 μl per well of stimulation medium supplemented with 10 μM of SNARF5 (Life Technologies Corporation). Each compound was tested in two different plates for duplicates. After 30, 60 and 90 min stimulation, fluorescence was read at exc. (excitation) 480 nm/emm. (emission) 580 nm and at exc 480 nm/emm. 630 nm. The ratio of fluorescence between 630 nm and 580 emission values, which is proportional to extracellular pH, was calculated. In each plate, 8 wells were used for negative controls (DMSO 0.1%) and 8 wells were used for positive controls (CCCP 2 μM in DMSO). Results are shown as % of positive control effect (0% and 100% being activities of the Veh and positive control, respectively).

Assay [4] concerns Wild-type (WT) and GLUT1-DS transgenic mice. In words: Grip strength test in WT and GLUT1-DS transgenic mice. The class given is in vivo, mouse. The settings on record: 10 mg/kg, after rotarod session.
Source text: as §3
Motor strength was measured on the grip strength test (Bioseb) after rotarod session. Wild-type (WT) and GLUT1-DS transgenic mice were placed with 4 paws on the grid and maximal grip strength was recorded over 2 sessions with 5 minutes apart. Maximal grip strength over the 2 sessions was recorded.

In assay [5] the test system is C57Bl/6J wild-type mice. In words: Lactate and glucose biosensors, cerebral extracellular levels in freely moving mice. The class given is in vivo, mouse. The conditions noted are these: per os, doses 10 to 30 mg/kg, 3 hours, AUC ratio vs vehicle. On the procedure:
as §1
Cerebral extracellular levels of L-lactate and D-glucose were monitored in vivo using lactate and glucose biosensors (Pinnacle Technology), respectively, according to the manufacturer's instructions. Cannulae were surgically implanted in the medial prefrontal cortices (coordinates: −1.0 mm (to bregma), lateral+/−1.0 mm (to mideline), ventral −1.0 mm (to dura))) of isoflurane-anesthetized mice 5 to 7 days prior experiment. After surgery, mice were monitored closely and received analgesic treatment for at least 4 days. After mice had fully recovered from surgery, compounds of the invention of vehicle were administered per os as previously described and cerebral levels of extracellular lactate and glucose were dynamically recorded for 6 hours using biosensors. Mice were administered vehicle alone first, followed 3 hours later by vehicle or Compounds of the Invention. Concentrations of cerebral extracellular lactate and glucose were calculated from the biosensor electric signals using post-calibration values. […] Area Under the Curve (AUC) of lactate and glucose concentration curves were calculated using Graphad Prism and the ratio of AUC after drug over Vehicle administration was calculated. Extracellular concentrations of lactate and glucose were measured in real time in freely moving animals for 3 hours after administration of Vehicle or compounds (1) to (4) at doses ranging from 10 to 30 mg/kg (FIG. 5).

Here are results for six compounds from patent US20260125357A1, “LACTATE ENHANCING COMPOUNDS AND USES THEREOF” (GLIAPHARM SA, priority 2022, published 2026).

pEC50: −log10 of the molar value.

Regarding `COc1cc2ccnc(Cc3ccc(N4CCCC4=O)cc3)c2cc1OC` [Compound 1, 1-[4-[(6,7-dimethoxy-1-isoquinolyl)methyl]phenyl]pyrrolidin-2-one], the “glucose uptake in the brain (18F-FDG in the whole brain)” value with C57Bl/6J wild-type mice [1] is on record as “increases glucose uptake in the brain”. The “mitochondrial activity (MTT colorimetric assay)” value (shortened to “mitochondrial activity”) with primary astrocytes [2] was “none of the selected compounds had direct effect on mitochondrial activity”. In addition, the “rotarod performance (latency to fall)” value in the assay with GLUT1-DS transgenic mice is given as “increased rotarod performance”. Besides, in the assay on primary astrocytes [3], the negative logarithm of the EC50 (pEC50) was more than 6.00. Also, the “muscle strength (grip strength)” value in assay [4] was “did not lead to any difference on muscle strength”. For the same compound, in the assay on C57Bl/6J wild-type mice [5], the “extracellular glucose levels in the brain” value (from here on “extracellular glucose levels”) is given as “significantly increases extracellular glucose levels” and the “extracellular lactate levels in the brain” value (shortened to “extracellular lactate levels”) is reported as “significantly increases extracellular lactate levels”.
Turning to `COc1cc2ccnc(Nc3ccc(S(C)(=O)=O)cc3)c2cc1O` [Compound 3, 6-methoxy-1-(4-methylsulfonylanilino)isoquinolin-7-ol], the “mitochondrial activity” value with primary astrocytes [2] was “none of the selected compounds had direct effect on mitochondrial activity”. Further, in the assay with primary astrocytes [3], the pEC50 is more than 6.00. Moreover, in the assay with C57Bl/6J wild-type mice [5], the “extracellular glucose levels” value is on record as “significantly increases extracellular glucose levels” and the “extracellular lactate levels” value is “significantly increases extracellular lactate levels”.
On to `COc1cc2c(Nc3ccc(S(C)(=O)=O)cc3)nccc2cc1O` [Compound 4, 7-methoxy-1-(4-methylsulfonylanilino)isoquinolin-6-ol], for which the “mitochondrial activity” value with primary astrocytes [2] was “none of the selected compounds had direct effect on mitochondrial activity”. Moreover, the pEC50 in the assay on primary astrocytes [3] was more than 6.00. In the assay on C57Bl/6J wild-type mice [5], the “extracellular glucose levels” value was “significantly increases extracellular glucose levels” and the “extracellular lactate levels” value is “significantly increases extracellular lactate levels”.
Regarding `CS(=O)(=O)c1ccc(Nc2nccc3cc(O)c(O)cc23)cc1` [Compound 5, 1-(4-methylsulfonylanilino)isoquinoline-6,7-diol], in the assay on primary astrocytes [2], the “mitochondrial activity” value is given as “none of the selected compounds had direct effect on mitochondrial activity”. In addition, the pEC50 with primary astrocytes [3] was more than 6.00.
The like results for `COc1cc2ccnc(Nc3ccc(N4CCCC4=O)cc3)c2cc1OC` [Compound 9, 1-[4-[(6,7-dimethoxy-1-isoquinolyl)amino]phenyl]pyrrolidin-2-one] were, in that order, “none of the selected compounds had direct effect on mitochondrial activity” and more than 6.00.
For `C=COc1ccc2c(Nc3ccc(S(C)(=O)=O)cc3)nccc2c1` [Compound 10, N-(4-methylsulfonylphenyl)-6-vinyloxy-isoquinolin-1-amine], the “mitochondrial activity” value in the assay on primary astrocytes [2] is “none of the selected compounds had direct effect on mitochondrial activity”. In addition, the pEC50 with primary astrocytes [3] is more than 6.00.

As usually defined, the pEC50 is −log10 of the EC50, conventionally taken in molar units.
